Laboratory results as given in US20240208992A1, “MACROCYCLES AS CFTR MODULATORS” (Idorsia Pharmaceuticals Ltd, priority 2021, published 2024).

Molecular target: human F508del-CFTR (Homo sapiens, UniProt P13569, DEL508-508)
Assay: F508del-CFTR cell surface expression (corrector activity), DiscoveRx ß-galactosidase complementation chemiluminescence assay in recombinant U2OS cell line;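 note: U2OS cells co-expressing ProLink-tagged F508del-CFTR and a membrane-anchored enzyme acceptor, where more surface CFTR restores β-galactosidase activity measured by chemiluminescence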
Conditions: U2OS cell line, 16h compound incubation; for EC50: EC50, F508del-CFTR cell surface expression, geomean values; for Emax: U2OS, in relation to the Emax of the corrector lumacaftor (=100%), arithmetic mean values

human F508del-CFTR, sequence (P13569 with tags, fused parts or gaps DEL508-508): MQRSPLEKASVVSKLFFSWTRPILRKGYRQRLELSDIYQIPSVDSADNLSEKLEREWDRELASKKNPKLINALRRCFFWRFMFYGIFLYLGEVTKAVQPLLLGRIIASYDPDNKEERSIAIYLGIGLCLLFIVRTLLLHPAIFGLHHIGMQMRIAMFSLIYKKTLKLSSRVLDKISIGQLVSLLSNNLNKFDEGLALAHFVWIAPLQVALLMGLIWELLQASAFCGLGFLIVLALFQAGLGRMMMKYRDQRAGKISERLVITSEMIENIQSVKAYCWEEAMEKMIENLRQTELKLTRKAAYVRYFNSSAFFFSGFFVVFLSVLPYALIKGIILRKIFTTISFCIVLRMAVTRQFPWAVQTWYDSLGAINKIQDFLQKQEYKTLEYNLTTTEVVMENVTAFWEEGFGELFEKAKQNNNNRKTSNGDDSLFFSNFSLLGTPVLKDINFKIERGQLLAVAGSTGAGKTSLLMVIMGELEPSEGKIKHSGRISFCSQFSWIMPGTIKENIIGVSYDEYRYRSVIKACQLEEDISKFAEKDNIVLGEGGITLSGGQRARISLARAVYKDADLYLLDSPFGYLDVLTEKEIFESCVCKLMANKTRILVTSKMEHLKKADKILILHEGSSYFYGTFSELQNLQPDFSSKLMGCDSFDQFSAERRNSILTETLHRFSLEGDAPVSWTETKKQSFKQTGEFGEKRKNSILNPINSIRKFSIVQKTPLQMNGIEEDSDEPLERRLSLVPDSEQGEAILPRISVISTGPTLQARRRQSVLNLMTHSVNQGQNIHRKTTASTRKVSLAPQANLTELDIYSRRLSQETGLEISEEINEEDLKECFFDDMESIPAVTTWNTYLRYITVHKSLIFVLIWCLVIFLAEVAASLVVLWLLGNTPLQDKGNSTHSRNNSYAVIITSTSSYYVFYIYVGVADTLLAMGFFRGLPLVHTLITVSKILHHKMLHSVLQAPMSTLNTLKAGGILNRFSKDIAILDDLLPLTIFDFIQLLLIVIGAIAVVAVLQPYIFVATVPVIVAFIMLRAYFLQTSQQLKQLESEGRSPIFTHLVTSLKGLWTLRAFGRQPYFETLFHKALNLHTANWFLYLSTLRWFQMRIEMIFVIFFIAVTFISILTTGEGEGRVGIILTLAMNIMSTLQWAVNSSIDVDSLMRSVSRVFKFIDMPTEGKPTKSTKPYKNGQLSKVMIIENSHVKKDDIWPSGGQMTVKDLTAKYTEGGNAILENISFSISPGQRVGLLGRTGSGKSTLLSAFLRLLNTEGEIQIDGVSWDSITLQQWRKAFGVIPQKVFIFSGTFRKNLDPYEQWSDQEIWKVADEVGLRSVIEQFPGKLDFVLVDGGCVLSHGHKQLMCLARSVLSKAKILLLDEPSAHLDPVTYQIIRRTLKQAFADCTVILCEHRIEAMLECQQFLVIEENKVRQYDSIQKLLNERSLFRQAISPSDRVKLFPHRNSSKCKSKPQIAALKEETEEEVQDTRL

Row | Structure (SMILES) | EC50 [µM] | Emax [%]
1 | Cc1nc2ccc3c(c2o1)C(=O)N[C@H](C(=O)NCCc1ccc2c(c1)OCO2)CC(=O)N(C)[C@@H](CC(C)C)C(=O)N(CCC1CCCCC1)CC(=O)N[C@H](Cc1ccccc1)CO3 [Example 379, (8R,14S,18S)-N-(2-(benzo[d][1,3]dioxol-5-yl)ethyl)-8-benzyl-12-(2-cyclohexylethyl)-14-isobutyl-2,15-dimethyl-10,13,16,20-tetraoxo-7,8,9,10,11,12,13,14,15,16,17,18,19,20-tetradecahydrooxazolo[4′,5′:5,6]benzo[1,2-p][1]oxa[4,7,10,14]tetraazacycloheptadecine-18-carboxamide] | 0.076 | 312
2 | COc1cccc(CCNC(=O)[C@@H]2CC(=O)N(C)[C@@H](CC(C)C)C(=O)N(CCC3CCCCC3)CC(=O)N[C@H](Cc3ccccc3)COc3ccc4nc(C)oc4c3C(=O)N2)c1 [Example 380, (8R,14S,18S)-8-benzyl-12-(2-cyclohexylethyl)-14-isobutyl-N-(3-methoxyphenethyl)-2,15-dimethyl-10,13,16,20-tetraoxo-7,8,9,10,11,12,13,14,15,16,17,18,19,20-tetradecahydrooxazolo[4′,5′:5,6]benzo[1,2-p][1]oxa[4,7,10,14]tetraazacycloheptadecine-18-carboxamide] | 0.065 | 325
3 | [2H]C([2H])([2H])Oc1cccc(CCNC(=O)[C@@H]2CC(=O)N(C)[C@@H](CC(C)C)C(=O)N(CCC3CCCCC3)CC(=O)N[C@H](Cc3ccccc3)COc3ccc4nc(C)oc4c3C(=O)N2)c1 [Example 381, (8R,14S,18S)-8-benzyl-12-(2-cyclohexylethyl)-14-isobutyl-N-(3-(methoxy-d3)phenethyl)-2,15-dimethyl-10,13,16,20-tetraoxo-7,8,9,10,11,12,13,14,15,16,17,18,19,20-tetradecahydrooxazolo[4′,5′:5,6]benzo[1,2-p][1]oxa[4,7,10,14]tetraazacycloheptadecine-18-carboxamide] | 0.068 | 322
4 | CC(C)C[C@H]1C(=O)N(CCC2CCCCC2)CC(=O)N[C@H](Cc2ccccc2)COc2cnc3c(F)cccc3c2C(=O)N[C@H](C(=O)NCCc2ccc3c(c2)OCO3)CC(=O)N1C [Example 382, (3S,7S,13R)-N-(2-(benzo[d][1,3]dioxol-5-yl)ethyl)-13-benzyl-9-(2-cyclohexylethyl)-18-fluoro-7-isobutyl-6-methyl-1,5,8,11-tetraoxo-1,2,3,4,5,6,7,8,9,10,11,12,13,14-tetradecahydro-[1]oxa[4,7,10,14]tetraazacycloheptadecino[17,16-c]quinoline-3-carboxamide] | 0.044 | 264
5 | COc1cccc(CCNC(=O)[C@@H]2CC(=O)N(C)[C@@H](CC(C)C)C(=O)N(CCC3CCCCC3)CC(=O)N[C@H](Cc3ccccc3)COc3cnc4c(F)cccc4c3C(=O)N2)c1 [Example 383, (3S,7S,13R)-13-benzyl-9-(2-cyclohexylethyl)-18-fluoro-7-isobutyl-N-(3-methoxyphenethyl)-6-methyl-1,5,8,11-tetraoxo-1,2,3,4,5,6,7,8,9,10,11,12,13,14-tetradecahydro-[1]oxa[4,7,10,14]tetraazacycloheptadecino[17,16-c]quinoline-3-carboxamide] | 0.065 | 317
6 | [2H]C([2H])([2H])Oc1cccc(CCNC(=O)[C@@H]2CC(=O)N(C)[C@@H](CC(C)C)C(=O)N(CCC3CCCCC3)CC(=O)N[C@H](Cc3ccccc3)COc3cnc4c(F)cccc4c3C(=O)N2)c1 [Example 384, (3S,7S,13R)-13-benzyl-9-(2-cyclohexylethyl)-18-fluoro-7-isobutyl-N-(3-(methoxy-d3)phenethyl)-6-methyl-1,5,8,11-tetraoxo-1,2,3,4,5,6,7,8,9,10,11,12,13,14-tetradecahydro-[1]oxa[4,7,10,14]tetraazacycloheptadecino[17,16-c]quinoline-3-carboxamide] | 0.054 | 282
7 | COc1cccc(CCNC(=O)[C@@H]2CC(=O)N(C)[C@@H](CC(C)C)C(=O)N(C)C3(CC3)C(=O)N[C@H](Cc3ccccc3)COc3ccc4ccccc4c3C(=O)N2)c1 [Example 385, (3′S,7′S,13′R)-13′-benzyl-7′-isobutyl-N-(3-methoxyphenethyl)-6′,9′-dimethyl-1′,5′,8′,11′-tetraoxo-2′,3′,4′,5′,6′,7′,8′,9′,11′,12′,13′,14′-dodecahydro-1′H-spiro[cyclopropane-1,10′-naphtho[1,2-p][1]oxa[4,7,10,14]tetraazacycloheptadecine]-3′-carboxamide] | 0.191 | 326
8 | COc1cccc(CCNC(=O)[C@@H]2CC(=O)N(C)[C@@H](CC(C)C)C(=O)NC3(CC3)C(=O)N[C@H](Cc3ccccc3)COc3ccc4ccccc4c3C(=O)N2)c1 [Example 386, (3′S,7′S,13′R)-13′-benzyl-7′-isobutyl-N-(3-methoxyphenethyl)-6′-methyl-1′,5′,8′,11′-tetraoxo-2′,3′,4′,5′,6′,7′,8′,9′,11′,12′,13′,14′-dodecahydro-1′H-spiro[cyclopropane-1,10′-naphtho[1,2-p][1]oxa[4,7,10,14]tetraazacycloheptadecine]-3′-carboxamide] | 0.393 | 149
9 | CC(C)C[C@H]1C(=O)N2CCOC[C@@H]2C(=O)N[C@H](Cc2ccccc2)COc2ccc3ccccc3c2C(=O)N[C@H](C(=O)NCCc2ccc(-n3nccn3)cc2)CC(=O)N1C [Example 387, (4aR,7R,18S,22S)-N-(4-(2H-1,2,3-triazol-2-yl)phenethyl)-7-benzyl-22-isobutyl-21-methyl-5,16,20,23-tetraoxo-1,2,4,4a,5,6,7,8,16,17,18,19,20,21,22,23-hexadecahydronaphtho[1,2-p][1,4]oxazino[3,4-f][1]oxa[4,7,10,14]tetraazacycloheptadecine-18-carboxamide] | 0.342 | 215
10 | COc1cccc(CCNC(=O)[C@@H]2CC(=O)N(C)[C@@H](CC(C)C)C(=O)N3CCN(C4CC4)C[C@H]3C(=O)N[C@H](Cc3ccccc3)COc3cnc4ccccc4c3C(=O)N2)c1 [Example 388, (9S,13S,19aS,22R)-22-benzyl-18-cyclopropyl-13-isobutyl-N-(3-methoxyphenethyl)-12-methyl-7,11,14,20-tetraoxo-7,8,9,10,11,12,13,14,17,18,19,19a,20,21,22,23-hexadecahydro-16H-pyrazino[2′,11:6,7][1]oxa[4,7,10,14]tetraazacycloheptadecino[17,16-c]quinoline-9-carboxamide] | 0.31 | 163
11 | COc1cccc(CCNC(=O)[C@@H]2CC(=O)N(C)[C@@H](CC(C)C)C(=O)N3CCN(C4CC4)C[C@@H]3C(=O)N[C@H](Cc3ccccc3)COc3cnc4ccccc4c3C(=O)N2)c1 [Example 389, (9S,13S,19aR,22R)-22-benzyl-18-cyclopropyl-13-isobutyl-N-(3-methoxyphenethyl)-12-methyl-7,11,14,20-tetraoxo-7,8,9,10,11,12,13,14,17,18,19,19a,20,21,22,23-hexadecahydro-16H-pyrazino[2′,1′:6,7][1]oxa[4,7,10,14]tetraazacycloheptadecino[17,16-c]quinoline-9-carboxamide] | 0.115 | 320
12 | COc1cccc(CCNC(=O)[C@@H]2CC(=O)N(C)[C@@H](CC(C)C)C(=O)N3CCN(C4CCC4)C[C@H]3C(=O)N[C@H](Cc3ccccc3)COc3cnc4ccccc4c3C(=O)N2)c1 [Example 390, (9S,13S,19aS,22R)-22-benzyl-18-cyclobutyl-13-isobutyl-N-(3-methoxyphenethyl)-12-methyl-7,11,14,20-tetraoxo-7,8,9,10,11,12,13,14,17,18,19,19a,20,21,22,23-hexadecahydro-16H-pyrazino[2′,11:6,7][1]oxa[4,7,10,14]tetraazacycloheptadecino[17,16-c]quinoline-9-carboxamide] | 0.269 | 188
13 | COc1cccc(CCNC(=O)[C@@H]2CC(=O)N(C)[C@@H](CC(C)C)C(=O)N3CCN(C4CCC4)C[C@@H]3C(=O)N[C@H](Cc3ccccc3)COc3cnc4ccccc4c3C(=O)N2)c1 [Example 391, (9S,13S,19aR,22R)-22-benzyl-18-cyclobutyl-13-isobutyl-N-(3-methoxyphenethyl)-12-methyl-7,11,14,20-tetraoxo-7,8,9,10,11,12,13,14,17,18,19,19a,20,21,22,23-hexadecahydro-16H-pyrazino[2′,1′:6,7][1]oxa[4,7,10,14]tetraazacycloheptadecino[17,16-c]quinoline-9-carboxamide] | 0.07 | 319
14 | CC(C)C[C@H]1C(=O)N2CCN(C3CC3)C[C@H]2C(=O)N[C@H](Cc2ccccc2)COc2cnc3ccccc3c2C(=O)N[C@H](C(=O)NCCc2ccc3c(c2)OCO3)CC(=O)N1C [Example 392, (9S,13S,19aS,22R)-N-(2-(benzo[d][1,3]dioxol-5-yl)ethyl)-22-benzyl-18-cyclopropyl-13-isobutyl-12-methyl-7,11,14,20-tetraoxo-7,8,9,10,11,12,13,14,17,18,19,19a,20,21,22,23-hexadecahydro-16H-pyrazino[2′,1′:6,7][1]oxa[4,7,10,14]tetraazacycloheptadecino[17,16-c]quinoline-9-carboxamide] | 0.327 | 144
15 | CC(C)C[C@H]1C(=O)N2CCN(C3CC3)C[C@@H]2C(=O)N[C@H](Cc2ccccc2)COc2cnc3ccccc3c2C(=O)N[C@H](C(=O)NCCc2ccc3c(c2)OCO3)CC(=O)N1C [Example 393, (9S,13S,19aR,22R)-N-(2-(benzo[d][1,3]dioxol-5-yl)ethyl)-22-benzyl-18-cyclopropyl-13-isobutyl-12-methyl-7,11,14,20-tetraoxo-7,8,9,10,11,12,13,14,17,18,19,19a,20,21,22,23-hexadecahydro-16H-pyrazino[2′,11:6,7][1]oxa[4,7,10,14]tetraazacycloheptadecino[17,16-c]quinoline-9-carboxamide] | 0.118 | 314
16 | CC(C)C[C@H]1C(=O)N2CCN(C3CCC3)C[C@H]2C(=O)N[C@H](Cc2ccccc2)COc2cnc3ccccc3c2C(=O)N[C@H](C(=O)NCCc2ccc3c(c2)OCO3)CC(=O)N1C [Example 394, (9S,13S,19aS,22R)-N-(2-(benzo[d][1,3]dioxol-5-yl)ethyl)-22-benzyl-18-cyclobutyl-13-isobutyl-12-methyl-] | 0.262 | 151
